Test results taken from patent publication US20200038513A1, “MODULATORS OF FAK PROTEOLYSIS AND ASSOCIATED METHODS OF USE” (ARVINAS OPERATIONS, INC., priority 2018, published 2020).

Legend:
MDA-MB-231 cells = experiment: Wound healing assay; type: cell-based, human; details: 24 hours
Experimental: MDA-MB-231 cells were maintained in complete growth medium (RPMI-1640) at 37° C. supplied with 5% CO2. Cells (1×10^6) were split in to a 12-well plate. After 24 hours an even wound was created across each well using a sterile 10 μL pipette tip and the cells were washed with warm phosphate-buffered solution (PBS) twice to remove any floating or dead cells. This time point was considered as 0 hours and cells were incubated in fresh medium containing exemplary compound or control as indicated, for 24 hours. Images of wounded area were captured at 0 hour and after 24 hours using a camera attached to a light microscope. Images were analyzed by ImageJ software and wounded area was quantified. The area of the remaining wound at 24 hours was subtracted from the area of the wound at 0 hour. Percent wound healing (migration) was calculated and data presented as a bar graph using Prism 7.0 (GraphPad). Differences between groups were analyzed by Welch's t-test and considered significant when p<0.05.
Since Fak is a key regulator of cell motility, exemplary compound 102 was evaluated for its effect on cell migration and invasion. […] Effects on cell migration were analyzed in a wound healing assay using the aggressive and invasive human TNBC cell line MDA-MB-231. […] Wound closure was quantified after 24 hours (FIGS. 13A and 13B).

Fak = Fak (Homo sapiens, UniProt Q05397); experiment: Kinase activity assay (Reaction Biology Corp.); type: biochemical; design: purchased Reaction Biology Corp. (contract assay service); details: 10 μM ATP, n = 2
Fak, sequence (Q05397 whole entry): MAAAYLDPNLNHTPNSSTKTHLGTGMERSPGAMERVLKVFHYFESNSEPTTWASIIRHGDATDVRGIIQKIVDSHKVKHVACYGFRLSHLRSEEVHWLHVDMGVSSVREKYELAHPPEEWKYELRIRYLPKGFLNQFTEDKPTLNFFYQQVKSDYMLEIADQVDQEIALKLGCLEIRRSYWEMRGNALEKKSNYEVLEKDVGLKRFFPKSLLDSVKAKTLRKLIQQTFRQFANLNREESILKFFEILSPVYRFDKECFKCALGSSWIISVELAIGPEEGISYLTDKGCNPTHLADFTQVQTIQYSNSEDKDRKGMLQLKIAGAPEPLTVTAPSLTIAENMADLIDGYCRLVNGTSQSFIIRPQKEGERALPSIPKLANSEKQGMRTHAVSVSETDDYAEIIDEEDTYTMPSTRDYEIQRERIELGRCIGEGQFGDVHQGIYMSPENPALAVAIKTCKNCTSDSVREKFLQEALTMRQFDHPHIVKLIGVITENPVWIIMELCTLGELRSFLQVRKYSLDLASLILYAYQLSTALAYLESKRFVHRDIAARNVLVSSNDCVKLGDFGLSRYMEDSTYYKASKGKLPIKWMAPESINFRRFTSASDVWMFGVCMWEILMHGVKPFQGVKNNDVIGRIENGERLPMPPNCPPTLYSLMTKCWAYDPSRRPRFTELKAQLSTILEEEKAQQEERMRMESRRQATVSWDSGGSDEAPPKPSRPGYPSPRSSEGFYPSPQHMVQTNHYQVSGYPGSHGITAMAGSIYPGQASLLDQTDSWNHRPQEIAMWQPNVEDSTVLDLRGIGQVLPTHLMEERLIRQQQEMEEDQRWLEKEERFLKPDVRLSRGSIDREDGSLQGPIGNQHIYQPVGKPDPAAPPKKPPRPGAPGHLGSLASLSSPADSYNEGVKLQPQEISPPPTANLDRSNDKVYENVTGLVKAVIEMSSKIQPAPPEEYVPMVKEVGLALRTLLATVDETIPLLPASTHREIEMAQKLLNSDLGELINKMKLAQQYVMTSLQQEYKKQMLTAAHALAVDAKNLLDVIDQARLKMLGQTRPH
Experimental: Reactions were carried out at 10 μM ATP. IC50 values were calculated using Prism 7.0 (GraphPad).

set of 468 kinases = experiment: KinomeScan kinase engagement assay (DiscoverX); type: binding; details: 1000 nM, 403 non-mutant kinases
Experimental: The Kinase engagement assay was performed by DiscoverX assessing binding abilities towards a set of 468 kinases.
Examination of Target Protein Selectivity. To assess the target selectivity of exemplary compound 102 over a large panel of different kinases, a DiscoverX KINOMEScan was performed. KINOMEScan measures compound binding to individual kinases via the compounds ability to compete/displace the kinases from an immobilized support that non-selectively binds kinase active sites. […] It appears that the slight loss in inhibitory potency due to linker and VHL ligand attachment results in greater selectivity.

androgen receptor (AR) = experiment: Western blot validation of RPPA results in MDA-MB-231 cells; type: cell-based, human; details: 10% FBS, varying concentrations
Experimental: (§1) If not indicated otherwise, cells were seeded and grown to 80% confluency and were treated with compound or control for 24 hours. Subsequently, the growth media was removed and the cells lysed by the addition of lysis buffer (25 mM Tris, pH 7.4; 1% NP-40, 0.25% deoxycholate, 1 mM sodium vanadate, 10 mM sodium fluoride, 10 mM sodium pyrophosphate, 20 mM β-glycerophosphate and 1× complete EDTA-free protease inhibitor cocktail (Roche)). After 20 minutes the mixture was spun down at 16,000×g for 10 minutes at 4° C. to pellet insoluble materials. Protein concentration of supernatants were determined via BCA assay (Thermo Fisher) before addition of NuPAGE sample buffer containing 5% β-Me and boiling at 95° C. for 10 minutes. Equal amounts of protein were subjected to SDS-PAGE and subsequent electrophoretic transfer onto nitrocellulose membrane. Rabbit antibodies were purchased from Cell Signaling: Fak (3285), p-Fak (3283), p-Paxillin (2541), p-Akt (S473)(4060), GAPDH (2118), Androgen Receptor (5153), p-Src(Y527)(2105), p-S6RP (2215). Mouse antibodies were purchased from Cell Signaling: tubulin (3873), S6RP (2317). Secondary antibody ∝-rabbit (31460) or ∝-mouse (31444) was coupled to horseradish peroxidase and purchased from Thermo Fisher. Immunoblots were developed using enhanced chemiluminescence and visualized using a Bio-Rad Chemi-Doc MP Imaging System and quantitated with Image Lab v.5.2.1 software (Bio-Rad Laboratories). Data analysis and statistics was performed using Prism 7.0 (GraphPad).
(§2) It has been previously shown that extranuclear AR is involved in cell migration and forms a multiprotein complex comprised of filamin A/β-1 integrin/Fak/AR in NIH3T3 fibroblasts that facilitates Fak activation. […] Phosphorylation of S6RP occurs via the Src-Fak-PI3K pathway and p-S6RP is required for the initiation of translation in response to cell growth and proliferation.

p-Src(Y527) = experiment: as above; type: cell-based, human; details: 10% FBS, varying concentrations
Experimental: as §1, §2

p-Akt(S473) = experiment: as above; type: cell-based, human; details: 10% FBS, varying concentrations
Experimental: as §1, §2

p-S6RP(S240/S244) = experiment: as above; type: cell-based, human; details: 10% FBS, varying concentrations
Experimental: as §1, §2

Compound: Cc1ncsc1-c1ccc(CNC(=O)[C@@H]2C[C@@H](O)CN2C(=O)[C@@H](NC(=O)CCOCCOc2ccc(Nc3ncc(C(F)(F)F)c(NCc4cccc(N(C)S(C)(=O)=O)c4)n3)cc2)C(C)(C)C)cc1 [Compound 102, (2S,4R)-1-((S)-3,3-dimethyl-2-(3-(2-(4-((4-((3-(N-methylmethylsulfonamido)benzyl)amino)-5-(trifluoromethyl)pyrimidin-2-yl)amino)phenoxy)ethoxy)propanamido)butanoyl)-4-hydroxy-N-(4-(4-methylthiazol-5-yl)benzyl)pyrrolidine-2-carboxamide]
- reduction of wound healing (MDA-MB-231 cells; 50 nM): 53%
- impairment of wound closure (MDA-MB-231 cells; 250 nM): 70%
- IC50 (Fak): 6.5 nM
- Number of Hits, S(10) (set of 468 kinases): 7
- Selectivity Score, S(1) (set of 468 kinases): 0.002
- Selectivity Score, S(10) (set of 468 kinases): 0.017
- Selectivity Score, S(35) (set of 468 kinases): 0.05
- Number of Hits, S(35) (set of 468 kinases; less than 35% of control remaining): 20
- AR levels (in words) (androgen receptor (AR)): reduction of AR levels
- p-Src(Y527) levels (in words) (p-Src(Y527)): reduced levels
- p-Akt(S473) levels (in words) (p-Akt(S473)): reduced levels of p-Akt(S473)
- phosphorylation of S6RP (in words) (p-S6RP(S240/S244)): reduced phosphorylation
